Laboratory results reported in patent publication US11564909B2, “Methods and compositions for oral pilocarpine liquid” (ROMEG Therapeutics LLC, priority 2020, dated 2023).

Experiments:
Caco-2 cells = assay: in vitro
Procedure: (§1) The objective of this study was to evaluate the bidirectional Caco-2 permeability of three formulations of test article Pilocarpine at three pH levels (pH 5.7, 6.5, 7.4) using calibration curve quantitation.
(§2) Samples were analyzed by LC/MS/MS using an Waters Xevo TQ mass spectrometer coupled with an Acuity HPLC and a CTC PAL chilled autosampler, all controlled by MassLynx software (Waters). After separation on a C18 reverse phase (Waters Acquity HSS T3 2.1×50 mm […]) using an acetonitrile-water gradient system, peaks were analyzed by mass spectrometry (MS) using ESI ionization in MRM mode.
(§3) Tables 16-17 show the HPLC gradients used and the experiment conditions of the Caco-2 permeability test, respectively.
(§4) Caco-2 cells grown in tissue culture flasks were trypsinized, suspended in medium, and the suspensions were applied to wells of a Millipore 96 well plate. The cells were allowed to grow and differentiate for three weeks, feeding at 2-day intervals.
(§5) For Apical to Basolateral (A→B) permeability, the test article was added to the apical (A) side and amount of permeation was determined on the basolateral (B) side; for Basolateral to Apical (B→A) permeability, the test article was added to the B side and the amount of permeation was determined on the A side. […] Caco-2 cells were incubated with test articles in these buffers for 2 hours, and at the end of the assay, donor and receiver side solution samples were collected, quenched by 100% methanol containing an internal standard and centrifuged at 5000 rpm for 10 minutes at 4° C. Following centrifugation, the supernatant for donor and receiver side samples were analyzed by LC-MS/MS.
(§6) Data is expressed as permeability (Papp):
(§7) [formula] dQ/dt is rate of permeation, C0 is initial concentration of test article, and A is the area of monolayer.
(§8) In bidirectional permeability studies, Efflux Ratio (Re) is also calculated:
(§9) [formula] Re>2 indicates a potential substrate for P-gp or other active efflux transporters. The donor, dosing and receiver side sample concentrations were calculated based on the calibration curve prepared in buffer matrix in the range of 1-20,000 nM.

in vitro = conditions: human, Caco-2
Procedure: as §1, §2, §3, §4, §5, §6, §7, §8, §9

With COCCc1ccc(OCC(O)CNC(C)C)cc1 (stereo not drawn) [Metoprolol] the “Comments (permeability class)” value (Caco-2 cells) was “High permeability”, the Papp A→B at 2 h, 10 μM (in vitro) was 19.4 ×10⁻⁶ cm/s and the Papp B→A at 2 h, 10 μM (in vitro) was 42.7 ×10⁻⁶ cm/s. It also gave an efflux ratio at 2 h, 10 μM (in vitro) of 2.22.

For CNC(=C[N+](=O)[O-])NCCSCc1ccc(CN(C)C)o1 [Ranitidine], the “Comments (permeability class)” value (Caco-2 cells) was “Low permeability”, the Papp A→B at 2 h, 10 μM (in vitro) was 0.585 ×10⁻⁶ cm/s and the Papp B→A at 2 h, 10 μM (in vitro) was 3.13 ×10⁻⁶ cm/s. It also gave an efflux ratio at 2 h, 10 μM (in vitro) of 5.41.

With CC[C@@H]1C(=O)OC[C@@H]1Cc1cncn1C [pilocarpine, (3S,4R)-3-Ethyl-4-((1-methyl-1H-imidazol-5-yl)methyl)dihydrofuran-2(3H)-one] the BCS permeability classification (Caco-2 cells) was “high permeability”.
